Results from publication PMC7670487 (ACS Infectious Diseases, 2020).
Read-outs that look alike come from different tables or passages of the source.

Columns and labels:
[1] = tested on: T. cruzi (Y strain) trypomastigotes; assay: Antitrypomastigote assay (resazurin viability); type: cell-based; conditions: Trypanosoma cruzi, LLC-MK2-derived trypomastigotes, 24 h incubation, up to 100 μM, read-out: IC50 (μM) ± SD trypomastigote
Protocol: Our attention next turned to an evaluation of the activity of the various natural product analogues against T. cruzi amastigotes (evaluated microscopically using an ex vivo intracellular model with mice macrophages)[20] and trypomastigotes (resazurin in vitro assay).[30] […] Macrophages were collected from the peritoneal cavity of BALB/c mice by washing them with RPMI-1640 medium supplemented with 10% fetal calf serum and were maintained at 37 °C in a 5% CO2 humidified incubator. Trypomastigotes of T. cruzi (Y strain) were maintained in Rhesus monkey kidney cells (LLC-MK2, ATCC CCL 7) and cultivated in RPMI-1640 medium supplemented with 2% fetal calf serum at 37 °C in a 5% CO2 humidified incubator. Murine conjunctive cells (NCTC clone 929, ATCC) were maintained in RPMI-1640 supplemented with 10% FBS at 37 °C in a 5% CO2 humidified incubator.[20] LLC-MK2-derived trypomastigotes were seeded (1 × 10^6 cells/well) in 96-well plates and incubated with the compounds serially diluted 2-fold (up to 100 μM) for 24 h in RPMI 1640 medium at 37 °C in a 5% CO2 humidified incubator. Subsequently, resazurin (0.011% in PBS) was added for 24 h to check the parasite viability.[30] The optical density was determined in the FilterMax F5 (Molecular Devices) at 570 nm. Benznidazole was used as the standard. IC50 and CC50 values were calculated using a sigmoid dose–response curve in GraphPad Prism 6.0 software (GraphPad Software, San Diego, CA, USA). The assays were repeated at least twice, and the samples were tested in duplicate.

[2] = tested on: Fibroblast NCTC cells (clone 929); assay: Cytotoxicity against mammalian cells (MTT); type: cell-based, murine; conditions: for SI (selectivity index): ratio between CC50 in NCTC cells and IC50 in intracellular amastigotes; for CC50 (μM) ± SD: NCTC clone 929 cells, 48 h, 200–1.56 μM, MTT
Protocol: (§1) Macrophages were collected from the peritoneal cavity of BALB/c mice by washing them with RPMI-1640 medium supplemented with 10% fetal calf serum and were maintained at 37 °C in a 5% CO2 humidified incubator. Trypomastigotes of T. cruzi (Y strain) were maintained in Rhesus monkey kidney cells (LLC-MK2, ATCC CCL 7) and cultivated in RPMI-1640 medium supplemented with 2% fetal calf serum at 37 °C in a 5% CO2 humidified incubator. Murine conjunctive cells (NCTC clone 929, ATCC) were maintained in RPMI-1640 supplemented with 10% FBS at 37 °C in a 5% CO2 humidified incubator.[20] […] The selectivity index (SI) was determined as CC50/IC50 against amastigotes. IC50 and CC50 values were calculated using a sigmoid dose–response curve in GraphPad Prism 6.0 software (GraphPad Software, San Diego, CA, USA). The assays were repeated at least twice, and the samples were tested in duplicate.

[3] = Cytotoxicity against mammalian cells (MTT); type: cell-based, murine; conditions: mouse, NCTC clone 929 fibroblast cells; NCTC clone 929 cells, 48 h, 200–1.56 μM, MTT
Protocol: as §1

[4] = tested on: T. cruzi amastigotes; assay: Antiamastigote assay (intracellular, infected peritoneal macrophages, infection index by microscopy); type: cell-based, Trypanosoma cruzi; conditions: for IC50: Trypanosoma cruzi, Peritoneal macrophage, in Mus musculus, intracellular amastigotes in BALB/c peritoneal macrophages, 48 h, 30–0.23 μM, read-out: IC50 (μM) ± SD amastigote
Protocol: Our attention next turned to an evaluation of the activity of the various natural product analogues against T. cruzi amastigotes (evaluated microscopically using an ex vivo intracellular model with mice macrophages)[20] and trypomastigotes (resazurin in vitro assay).[30] […] Macrophages were collected from the peritoneal cavity of BALB/c mice by washing them with RPMI-1640 medium supplemented with 10% fetal calf serum and were maintained at 37 °C in a 5% CO2 humidified incubator. Trypomastigotes of T. cruzi (Y strain) were maintained in Rhesus monkey kidney cells (LLC-MK2, ATCC CCL 7) and cultivated in RPMI-1640 medium supplemented with 2% fetal calf serum at 37 °C in a 5% CO2 humidified incubator. Murine conjunctive cells (NCTC clone 929, ATCC) were maintained in RPMI-1640 supplemented with 10% FBS at 37 °C in a 5% CO2 humidified incubator.[20] Peritoneal macrophages (1 × 10^5 cells/well), collected from the peritoneal cavity of the BALB/c mice, were seeded in 16-well chamber slides (NUNC, Thermo Fisher Scientific) and infected with trypomastigotes (10:1, parasite/macrophage ratio). After 2 h, the compounds (in concentrations of 30–0.23 μM) were incubated with infected macrophages for 48 h at 37 °C in a 5% CO2 humidified incubator. The slides were fixed with MeOH, stained with Giemsa, and observed under a light microscope (EVOS M5000, Termo, USA) with digital image equipment. […] IC50 and CC50 values were calculated using a sigmoid dose–response curve in GraphPad Prism 6.0 software (GraphPad Software, San Diego, CA, USA). The assays were repeated at least twice, and the samples were tested in duplicate.

[5] = tested on: Fibroblast NCTC cells (clone 929); conditions: cited from earlier work
[6] = tested on: T. cruzi amastigotes; conditions: T. cruzi intracellular amastigotes; read-out: IC50 (μM) ± SD amastigote; cited from earlier work

| SMILES | IC50 [1] [µM] | IC50 [4] [µM] | SI (selectivity index) [2] | CC50 at 48 h [3] [µM] | fold more potent than the natural product 1 against the amastigotes ([4]; relative to compound 1, amastigote IC50) | CC50 ([5]; NCTC cells) [µM] | SI (selectivity index) ([5]; ratio between CC50 in NCTC cells and IC50 in intracellular amastigotes) | IC50 [6] [µM] | CC50 (μM) ± SD [2] |
| --- | --- | --- | --- | --- | --- | --- | --- | --- | --- |
| C=CCc1ccc(Oc2cc(CC=C)cc(OC)c2OCOC)c(OC)c1 [Compound 5] | 6.5 ± 4.9 | 24.4 ± 10.3 | >8.2 | > 200 |  |  |  |  |  |
| CCCc1ccc(Oc2cc(CCC)cc(OC)c2OC)c(OC)c1 [Compound 9] |  |  |  |  |  | > 200 | >15.0 | 13.3 ± 1.2 |  |
| C=CCc1cc(OC)c(OC)c(Oc2ccccc2OC)c1 [Compound 16] | 20.3 ± 0.4 |  |  | > 200 |  |  |  |  |  |
| C=CCc1cc(OC)c(OCc2ccc(OC)cc2)c(Oc2ccccc2OC)c1 [Compound 17] |  |  |  | > 200 |  |  |  |  |  |
| C=CCc1ccc(Oc2cc(CCC)cc(OC)c2OCc2ccc(OC)cc2)c(OC)c1 [Compound 18] |  | 13.4 ± 5.4 | >14.9 | > 200 |  |  |  |  |  |
| C=CCc1ccc(Oc2cccc(OC)c2OC)c(OC)c1 [Compound 20] | 63.1 ± 6.2 | 25.7 ± 12.2 | >7.8 | > 200 |  |  |  |  |  |
| C=CCc1ccc(Oc2cccc(OC)c2OCc2ccc(OC)cc2)c(OC)c1 [Compound 21] |  |  |  | > 200 |  |  |  |  |  |
| C=CCOc1c(OC)cccc1Oc1ccc(CC=C)cc1OC [Compound 22] |  |  |  | > 200 |  |  |  |  |  |
| C=CCc1ccc(Oc2cc(CC=C)ccc2OCc2ccc(OC)cc2)c(OC)c1 [Compound 24] |  | 11.6 ± 8.4 | >17.2 | > 200 |  |  |  |  |  |

More lines, in order of falling IC50 [4], values ahead:

| IC50 [1] [µM] | IC50 [4] [µM] | SMILES | SI (selectivity index) [2] | CC50 at 48 h [3] [µM] | fold more potent than the natural product 1 against the amastigotes ([4]; relative to compound 1, amastigote IC50) | CC50 ([5]; NCTC cells) [µM] | SI (selectivity index) ([5]; ratio between CC50 in NCTC cells and IC50 in intracellular amastigotes) | IC50 [6] [µM] | CC50 (μM) ± SD [2] |
| --- | --- | --- | --- | --- | --- | --- | --- | --- | --- |
| 4.6 ± 3 | 22.5 ± 18.8 | C=CCc1ccc(Oc2cc(CC=C)cc(OC)c2O)cc1 [Compound 15, 3-methylobovatol] | 5.5 | 123 ± 9.4 |  |  |  |  |  |
| 7.6 ± 1.9 | 16.6 ± 1 | C=CCc1cc(OC)c(O)c(Oc2ccc(CCC)cc2OC)c1 [Compound 13] | 2.5 | 42 ± 3.8 |  |  |  |  | significant mammalian toxicity |
| 21.9 ± 6.1 | 11.7 ± 7 | C=CCc1cc(OC)c(OC)c(Oc2ccc(CCC)cc2OC)c1 [Compound 11] | >17.1 | > 200 |  |  |  |  |  |
|  | 11 ± 2.3 | C=CCc1ccc(Oc2cc(CC=C)cc(OC)c2OCc2ccc(OC)cc2)cc1 [Compound 14] | >18.2 | > 200 |  |  |  |  |  |
|  | 10.9 ± 6.5 | C=CCc1cc(OC)cc(Oc2ccc(CC=C)cc2OC)c1 [Compound 25] | >18.3 | > 200 |  |  |  |  |  |
| 4.6 ± 3.8 | 10.5 ± 8.3 | C=CCc1ccc(Oc2cc(CCC)cc(OC)c2O)c(OC)c1 [Compound 19] | 1.3 | 14.2 ± 0.1 |  |  |  |  | significant mammalian toxicity |
|  | 8.6 ± 2.1 | C=CCc1cc(OC)c(OCc2ccc(OC)cc2)c(Oc2ccc(CCC)cc2OC)c1 [Compound 12] | >23.3 | > 200 |  |  |  |  |  |
| 2.5 ± 1.3 | 7.7 ± 1.3 | C=CCc1ccc(O)c(Oc2ccc(CC=C)cc2OC)c1 [Compound 23] | 16.7 | 129 ± 5.2 |  |  |  |  |  |
|  | 5.5 ± 3.5 | CCCc1ccc(Oc2cc(CCC)cc(OC)c2OCc2ccc(OC)cc2)c(OC)c1 [Compound 10] | >36.4 | > 200 |  |  |  |  |  |
| 17.7 ± 1.9 | 5 ± 1.5 | O=C(Cn1ccnc1[N+](=O)[O-])NCc1ccccc1 [benznidazole, reference compound] | 38.1 | 191 ± 13.4 |  |  |  |  |  |
|  | 4 ± 1.4 | C=CCc1ccc(Oc2cc(CC=C)cc(OC)c2OCc2ccc(OC)cc2)c(OC)c1 [Compound 6] | >50 | > 200 | approximately 20 fold |  |  |  |  |
